# Several values for one entry are separate records, joined by “and”; a condition that tells them apart may be missing. Equal values may be shown once.
# Tested on: WM3248 melanoma cells, 486 antibodies
# Test: Reverse phase protein arrays (RPPA)
# Type: cell-based, Human
# Source text: Pellets were snap frozen in liquid nitrogen and shipped to MD Anderson Cancer Center core RPPA facility for RPPA analysis (Table S5). Three biological replicates for each sample were generated.
# Nomenclatures on the RPPA heatmaps: name_of_antibody.species_of_antibody.status_of_antibody. V - antibody validated; C - validation of antibody in progress; Q - antibody nonspecific; E – under evaluation; antibodies raised in M - mouse, G - goat, R - rabbit, or T - rat.
smiles,measurement,setting,value
"CN(C)c1cccc(Nc2cc(-c3ccccc3)nc(C3CCNCC3)n2)c1 [ARN22089, N1,N1-dimethyl-N3-(6-phenyl-2-(piperidin-4-yl)pyrimidin-4-yl)benzene-1,3-diamine]",LCN2.R.V Norm_10 Average,level 10 vs 0,1.417
same,LDHA.R.C Norm_10 Average,level 10 vs 0,1.541
same,LRP6_pS1490.R.V Norm_10 Average,level 10 vs 0,0.919
same,Lasu1.R.V Norm_10 Average,level 10 vs 0,1.173
same,MACC1.R.V Norm_10 Average,level 10 vs 0,0.973
same,MAPK_pT202_Y204.R.C Norm_10 Average,level 10 vs 0,0.758
same,MCT4.R.V Norm_10 Average,level 10 vs 0,0.926
same,MDM2_pS166.R.V Norm_10 Average,level 10 vs 0,1.140
same,MEK1.R.V Norm_10 Average,level 10 vs 0,1.376
same,MEK1_pS217_S221.R.V Norm_10 Average,level 10 vs 0,0.904
same,MEK2.R.V Norm_10 Average,level 10 vs 0,0.981
same,MERIT40.R.C Norm_10 Average,level 10 vs 0,0.966
same,MERIT40_pS29.R.V Norm_10 Average,level 10 vs 0,1.055
same,METTL3.R.V Norm_10 Average,level 10 vs 0,1.153
same,MIF.R.C Norm_10 Average,level 10 vs 0,1.003
same,MIG6.R.V Norm_10 Average,level 10 vs 0,0.937
same,MITF.R.V Norm_10 Average,level 10 vs 0,1.099
same,MLH1.M.V Norm_10 Average,level 10 vs 0,0.965
same,MLKL.R.V Norm_10 Average,level 10 vs 0,0.901
same,MMP2.R.V Norm_10 Average,level 10 vs 0,0.936
same,MMP14.R.V Norm_10 Average,level 10 vs 0,1.251
same,MR1.M.C Norm_10 Average,level 10 vs 0,1.002
same,MSH6.R.C Norm_10 Average,level 10 vs 0,1.139
same,MSI2.R.C Norm_10 Average,level 10 vs 0,1.076
same,MTCO1.M.V Norm_10 Average,level 10 vs 0,1.058
same,MTSS1.M.C Norm_10 Average,level 10 vs 0,0.995
same,Mcl.1.R.V Norm_10 Average,level 10 vs 0,0.815
same,MelanA.R.C Norm_10 Average,level 10 vs 0,0.907
same,Melanoma.gp100.R.C Norm_10 Average,level 10 vs 0,0.952
same,Merlin.R.C Norm_10 Average,level 10 vs 0,1.140
same,Midkine.R.V Norm_10 Average,level 10 vs 0,0.931
same,Mitofusin.1.R.V Norm_10 Average,level 10 vs 0,0.966
same,Mitofusin.2.R.V Norm_10 Average,level 10 vs 0,0.982
same,Mnk1.R.V Norm_10 Average,level 10 vs 0,0.908
same,mTOR_pS2448.R.C Norm_10 Average,level 10 vs 0,1.026
same,HLA.DQA1.R.V Norm_10,"level 10 vs 0, replicates",0.816 and 1.208 and 0.956
same,HLA.DR.DP.DQ.DX.R.C Norm_10,"level 10 vs 0, replicates",0.907 and 1.197
same,HMHA1.R.V Norm_10,"level 10 vs 0, replicates",0.915 and 0.873 and 0.979
same,HNRNPK.R.V Norm_10,"level 10 vs 0, replicates",0.952 and 0.960
same,HSP27.M.C Norm_10,"level 10 vs 0, replicates",0.892 and 1.008 and 0.976
same,HSP27_pS82.R.V Norm_10,"level 10 vs 0, replicates",0.956 and 0.808 and 0.983
same,HSP60.R.V Norm_10,"level 10 vs 0, replicates",0.910 and 0.899 and 0.970
same,HSP70.R.C Norm_10,"level 10 vs 0, replicates",0.893 and 0.957
same,Hexokinase.I.R.C Norm_10,"level 10 vs 0, replicates",1.324 and 1.263
same,Hexokinase.II.R.V Norm_10,"level 10 vs 0, replicates",1.158 and 1.060 and 1.165
same,Hif.1αR.C Norm_10,"level 10 vs 0, replicates",1.534 and 0.812 and 1.121
same,Histone.H3.R.V Norm_10,"level 10 vs 0, replicates",1.104 and 1.109 and 0.657
same,Histone.H3_pS10.R.V Norm_10,"level 10 vs 0, replicates",0.925 and 1.333 and 0.853
same,IDO.R.C Norm_10,"level 10 vs 0, replicates",1.020 and 0.847 and 1.005
same,IGF1R_pY1135_Y1136.R.V Norm_10,"level 10 vs 0, replicates",1.020 and 0.873 and 0.862
same,IGFBP2.R.V Norm_10,"level 10 vs 0, replicates",0.915 and 0.942
same,IGFBP3.M.V Norm_10,"level 10 vs 0, replicates",0.808 and 1.056 and 1.048
same,IGFRb.R.C Norm_10,"level 10 vs 0, replicates",1.063 and 0.914 and 0.882
same,IL.6.R.C Norm_10,"level 10 vs 0, replicates",0.956 and 0.898 and 0.919
same,IMP3.R.C Norm_10,"level 10 vs 0, replicates",0.902 and 1.022 and 0.935
same,INPP4b.R.C Norm_10,"level 10 vs 0, replicates",0.944 and 1.130 and 1.013
same,IR.b.R.C Norm_10,"level 10 vs 0, replicates",1.057 and 0.927 and 0.958
same,IRF.1.R.V Norm_10,"level 10 vs 0, replicates",0.995 and 0.851 and 0.777
same,IRF.3.R.V Norm_10,"level 10 vs 0, replicates",0.868 and 1.016 and 1.018
same,IRS1.R.V Norm_10,"level 10 vs 0, replicates",1.002 and 0.864 and 0.920
same,IRS2.R.C Norm_10,"level 10 vs 0, replicates",1.495 and 0.732 and 0.873
same,JAB1.M.C Norm_10,"level 10 vs 0, replicates",1.010
same,JNK2.R.V Norm_10,"level 10 vs 0, replicates",0.700 and 4.357 and 1.864
same,JNK_pT183_Y185.R.C Norm_10,"level 10 vs 0, replicates",1.101 and 0.836 and 0.927
same,Jagged1.R.V Norm_10,"level 10 vs 0, replicates",0.925 and 0.930 and 0.952
same,Jak2.R.V Norm_10,"level 10 vs 0, replicates",0.891 and 0.946
same,KAP1.R.V Norm_10,"level 10 vs 0, replicates",1.129 and 0.933 and 1.246
same,KEAP1.R.V Norm_10,"level 10 vs 0, replicates",1.137 and 0.961 and 0.953
same,LAD1.R.V Norm_10,"level 10 vs 0, replicates",0.810 and 0.787 and 1.126
same,LC3A.B.R.C Norm_10,"level 10 vs 0, replicates",1.080
same,LCN2.R.V Norm_10,"level 10 vs 0, replicates",1.979 and 1.149 and 1.123
same,LDHA.R.C Norm_10,"level 10 vs 0, replicates",1.080 and 1.446 and 2.097
same,LRP6_pS1490.R.V Norm_10,"level 10 vs 0, replicates",0.997 and 0.923 and 0.837
same,Lasu1.R.V Norm_10,"level 10 vs 0, replicates",0.972 and 1.377 and 1.170
same,Lck.R.V Norm_10,"level 10 vs 0, replicates",1.025
same,Lyn.R.V Norm_10,"level 10 vs 0, replicates",0.836 and 1.342 and 1.046
same,MACC1.R.V Norm_10,"level 10 vs 0, replicates",0.988 and 0.983
same,MAPK_pT202_Y204.R.C Norm_10,"level 10 vs 0, replicates",0.814 and 0.633 and 0.828
same,MCT4.R.V Norm_10,"level 10 vs 0, replicates",0.718 and 0.987
same,MDM2_pS166.R.V Norm_10,"level 10 vs 0, replicates",1.187 and 1.159
same,MEK1.R.V Norm_10,"level 10 vs 0, replicates",3.067 and 0.225 and 0.836

# — publication PMC9127750, “Structure-based design of CDC42 effector interaction inhibitors for the treatment of cancer” (Cell reports, 2022)
